# Measured values from patent publication US20040072725A1, “Remedies/preventives for inflammatory diseases” (AJINOMOTO CO. INC, priority 2001, published 2004).
# Legend:
# [1] = test system: SKG mice, model mice with spontaneously-developed chronic rheumatism (rheumatoid arthritis); assay: SKG mice with spontaneously-developed chronic rheumatism; assay type: in vivo
# From the text: Regarding the score, 0 indicates no change; 0.1 indicates reddish edema seen in the finger joints of the mice; 0.5 indicates edema seen in the joints of the four limbs thereof; and 1.0 indicates serious edema seen in the joints thereof. For these, the mice were visually checked. The total of the scores of all the four limbs of each mouse is plotted in the graph.
# An SKG mouse model is known as the naturally-occurring model. This is found in BALB/c mouse colonies as a mouse that develops clinical arthritis, and it is sustained through sibship mating. Regarding the thus-mated SKG mice, when they are judged at 6-month age, almost all mice have some clinical arthritis (joint edema) in any of four limb joints. The arthritis is not by vertical/horizontal infection with microorganisms but is by autosomal recessive inheritance mutation. The clinical arthritis (joint edema) starts in around 2 months after the birth essentially at the finger joints of the forepaws, and thereafter extends to the joints of the hands and the joints of the legs. After 6 months, most of the mice develop arthrosclerosis (articular rigidity). From the pathohistological viewpoint, the disease starts from synovitis to periarthritis and further toward pannus formation and cartilage/subcartilaginous bone tissue fracture and fibrillation. […] This is an extremely interesting model for studying the mechanism of delayed inflammations. As an engineering model, there is known a transgenic (tg) mouse with a Tax gene of a human T cell leukemia virus-1 (HTLV-1) inserted therein. The tg mouse has the transgene expressing in the local joints, in which inflammatory cytokines such as IL-1α, IL-1β, IL-6, TNF-α, TGF-β, IFN-γ and IL-2, as well as MHC gene are activated. […] The tg mouse is a significant model in studies where the influence of Tax gene that will be probably because of its transactivation on the production of inflammatory cytokines or the influence of viruses on the mechanism of autoimmune reaction, and the like are specifically investigated.
# The pharmaceutical potency of the above-mentioned BCAA, mixture of branched amino acids, was investigated on SKG mice, model mice with spontaneously-developed chronic rheumatism (articular rheumatism). In the same manner as in Example 2, BCAA was orally administered to 4-weeks-old (before RA development) or 12-weeks-old (after RA development), male SKG mice. The dose to each mouse was 250 mg/liter.
# [2] = test system: adjuvant-induced arthritis (AA) in Lewis rats; conditions: 0.03% ornithine oral
# Protocol: AA induction in rats was attained in a well-known laboratory method (see Taurog et al., Meth. Enzymolo., 162, 339-355, 1988). Specifically, 50 μ/rat of 1% (w/v) adjuvant was administered to the bottom of the right foot of each rat. One, two and three weeks after the administration, the volume of the edema in the bottom of the right foot of each rat was measured by the use of a device for measuring rats' hind leg (foot) edema.
# The dose is the same as in Example 1.
# On day 7, 14 and 21 after the adjuvant administration, the rats were checked for edema.
# [3] = test system: collagen-induced arthritis (CIA) in DBA-1 mice; assay: Murine collagen-induced arthritis (CIA); assay type: in vivo
# Protocol: CIA induction in mice was attained by sensitizing mice with type-II collagen to trigger experimental arthritis (see Courtenay et al., Nature, 283, 666-668, 1980).
# An emulsion having an antigen amount of 100 μg/0.1 ml/mouse was intracutaneously injected into the tail root of each mouse. Three weeks after the first sensitization, the same emulsion also having an antigen amount of 100 μg/0.1 ml/mouse was again intracutaneously injected into the tail root of each mouse for boosting (additional) immunization, in the same manner as that for the first sensitization. About 4 days after the additional immunization, the mice were diagnosed as being arthritic, in which reddish edema was observed. […] The level of the edema in the mice was grouped into 4 ranks, and every limb (in four limbs) of each mouse was visually checked. […]
# Collagen-induced arthritis (CIA) was induced in mice in the same manner as above, and the mice were tested also in the same manner as above. […] The mice were judged on day 14 after the boosting (additional) immunization.
# The test condition was the same as above. As a result, in the control group, four of the five mice developed clinical arthritis in 14 days after the second subcutaneous administration; but in the ornithine-administered group, no mice developed it within 14 days after the second subcutaneous administration.
# However, it was 0 in the combined administration group.
# [4] = 0.03% L-ornithine oral from 4 weeks old, mice having turned 20 weeks old
smiles,measurement,setting,value
"NCCC[C@H](N)C(=O)O [Ornithine, L-ornithine]",effect on clinical arthritis (joint edema) in SKG mice (in words),[1]; 0.03% L-ornithine oral,significantly retard the clinical arthritis (joint edema)
same,arthritis score average,"[1]; 0.03% L-ornithine oral from 4 weeks old, male SKG mice having turned 11 weeks old",0.18
same,arthritis (joint) score average,[1]; [4],2.0
same,score reduction as compared with the control group,[1]; [4],35%
same,disease development (in words),"[1]; 0.03% L-ornithine oral started at 8 weeks old, effect lower than with start at 4 weeks old",the disease development was depressed in 2 weeks
same,dose dependence of effect in SKG mice (in words),"[1]; L-ornithine 0.15%, 0.03%, 0.006% aqueous solutions, FIG. 3",dose-dependent (response) effect of retarding clinical arthritis
same,effect on clinical arthritis in AA models (in words),[2],significantly retards clinical arthritis
same,Arthritis Score,"[3]; L-ornithine 0.006 wt.% aqueous solution, day 14 after boosting immunization",1.0
same,Arthritis Score,"[3]; L-ornithine 0.01% alone, oral in drinking water, day 12 after the second subcutaneous administration",0.8
same,mice showing edema in leg joints,"[3]; L-ornithine 0.01% single administration, day 12 after the second subcutaneous administration",three of the ten
same,Arthritis Score,"[3]; L-ornithine 0.03 wt.% aqueous solution, day 14 after boosting immunization",0.6
same,dose dependence of effect on CIA (in words),"[3]; L-ornithine 0.15%, 0.03%, 0.006% aqueous solutions",dose-response (dependent) effect of retarding clinical arthritis
same,Arthritis Score,"[3]; L-ornithine 0.15 wt.% aqueous solution, day 14 after boosting immunization",0.2
same,effect of feeding as solid feed on clinical arthritis (in words),[3]; L-ornithine in solid feed,effective for retarding clinical arthritis
same,mice that developed clinical arthritis,"[3]; L-ornithine in solid feed, within 14 days after the second subcutaneous administration",no mice
same,effect on CIA (in words),[3]; ornithine 0.03% oral,significantly retards CIA
same,Arthritis Score,"[3]; ornithine 0.03% oral, day 0 after antigenation",0
same,Arthritis Score,"[3]; ornithine 0.03% oral, day 4 after antigenation",0
same,Arthritis Score,"[3]; ornithine 0.03% oral, day 6 after antigenation",0
same,Arthritis Score,"[3]; ornithine 0.03% oral, day 8 after antigenation",0
same,Arthritis Score,"[3]; ornithine 0.03% oral, day 10 after antigenation",0
same,Arthritis Score,"[3]; ornithine 0.03% oral, day 12 after antigenation",0
same,Arthritis Score,"[3]; ornithine 0.03% oral, day 14 after antigenation",0
same,tested mice showing edema,"[3]; ornithine 0.03% oral, up to day 13 after the second subcutaneous administration",none
same,arthritis (joint) score,"[3]; ornithine 0.03% oral, whole observation (control followed up to day 17)",zero
